Experimental data reported in patent US9271952B2, “Compositions and methods for treating nephropathy” (Complexa, Inc., priority 2011, dated 2016).

Columns and labels:
B6129S2/J mice = experiment: Cisplatin-induced renal injury in mice, posttreatment with OA-NO2; assay type: in vivo
Text: The control group also received an i.p. injection of the equivalent amount of ethanol at the same frequencies. At the end of the experiments, under isoflurane anesthesia, blood was withdrawn from the vena cava using 1 cc insulin syringe and kidneys were harvested for analysis of morphology and gene expression.

[1] = system: human proximal tubular cells (HK2); experiment: Cisplatin-induced caspase activity in cultured human proximal tubular cells (HK2); assay type: cell-based
[2] = cisplatin-treated mice, OA-NO2 400 mg/kg i.p. at 6-hour intervals for 48 hours
[3] = cisplatin 20 mg/kg i.p. alone, mice

| Compound | MPO plasma level (marker of neutrophil infiltration) (B6129S2/J mice; [2]) | activity of caspase (index of apoptosis) (B6129S2/J mice; [2]) | kidney expression of NADPH oxidase subunits p47phox and gp91phox (B6129S2/J mice; [2]) | kidney thiobarbituric acid-reactive substances (TBARS, index of oxidative stress) (B6129S2/J mice; [2]) | renal histological abnormalities (distortion of renal morphology, dilation of renal tubules, protein cast; pathological changes) (B6129S2/J mice; mice given cisplatin 20 mg/kg i.p., OA-NO2 400 mg/kg i.p. at 6-hour intervals for 48 hours) | renal dysfunction as indicated by a rise in plasma BUN (functional changes) (B6129S2/J mice; mice given cisplatin 20 mg/kg i.p., OA-NO2 400 mg/kg i.p. from 20 minutes after, at 6-hour intervals for 48 hours) | cisplatin-induced caspase activity ([1]; HK2 cells exposed to 1.0 μM cisplatin, with OA-NO2) | activity of caspase (B6129S2/J mice; [3]) | kidney TBARS (B6129S2/J mice; [3]) | kidney expression of NADPH oxidase subunits p47phox and gp91phox (B6129S2/J mice; [3]) | increase in caspase activity ([1]; HK2 cells, exposure to 1.0 μM cisplatin) |
| --- | --- | --- | --- | --- | --- | --- | --- | --- | --- | --- | --- |
| 9- or 10-nitro octadecenoic acid [OA-NO2] | attenuated or completely corrected | attenuated or completely corrected | attenuated or completely corrected | attenuated or completely corrected | markedly attenuated | markedly attenuated | almost completely normalized |  |  |  |  |
| N.N.[Cl][Pt][Cl] [cisplatin, reference compound] |  |  |  |  |  |  |  | increased | increased | increased | 3 fold |
